Results taken from PubChem BioAssay (NCI).
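Growth conditions: 96-well plates. Treatment: test compound, 48 hours, 5 concentrations. Analysis: linear interpolation between bracketing concentrations; unreached endpoints set to highest concentration. GI50 is the concentration that inhibits growth by half. TGI marks complete inhibition of growth.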

Experiments:
Assay in all cases: DTP human tumour cell line panel, 48 h
DU-145 prostate = tested on: DU-145 prostate
MDA-MB-231 breast = tested on: MDA-MB-231 breast
T-47D breast = tested on: T-47D breast
NCI/ADR-RES ovarian = tested on: NCI/ADR-RES ovarian
DLD-1 colon = tested on: DLD-1 colon
LXFL 529 NSCLC = tested on: LXFL 529 NSCLC

`N#C[C@@H]1C(n2ccc(N)nc2=O)O[C@H](CO)[C@H]1O` (stereo partly specified) showed a GI50 (DU-145 prostate) of 5.02 µM, a TGI (DU-145 prostate) greater than 100 µM and a GI50 (MDA-MB-231 breast) greater than 100 µM. It also gave a TGI (MDA-MB-231 breast) greater than 100 µM, a GI50 (T-47D breast) greater than 100 µM and a TGI (T-47D breast) greater than 100 µM. It also gave a GI50 (NCI/ADR-RES ovarian) of 12.9 µM and a TGI (NCI/ADR-RES ovarian) greater than 100 µM.

`CC(C)[C@H]1C(=O)N[C@@H](CCCN=C(N)N)C(=O)NCC(=O)N[C@@H](CC(=O)O)C(=O)N[C@H](Cc2ccccc2)C(=O)N1C` was tested, and the GI50 (DU-145 prostate) was 7.66 µM, the TGI (DU-145 prostate) was 70.6 µM and the GI50 (MDA-MB-231 breast) was 1.83 µM. The TGI (MDA-MB-231 breast) was greater than 28.9 µM, the GI50 (T-47D breast) was 2.87 µM and the TGI (T-47D breast) was greater than 29.4 µM. For the same compound, the GI50 (NCI/ADR-RES ovarian) was greater than 100 µM and the TGI (NCI/ADR-RES ovarian) was greater than 100 µM.

Work on `COc1ccc(Cl)cc1Nc1nc(C(F)(F)F)ccc1C(=O)N/N=C/c1cc(OC)c(OC)c(OC)c1` yielded a GI50 (DU-145 prostate) of 4.27 µM, a TGI (DU-145 prostate) greater than 100 µM and a GI50 (MDA-MB-231 breast) of 2.21 µM. The TGI (MDA-MB-231 breast) was 8.66 µM, the GI50 (T-47D breast) was 1.39 µM and the TGI (T-47D breast) was 8.03 µM. The GI50 (NCI/ADR-RES ovarian) was 3.35 µM and the TGI (NCI/ADR-RES ovarian) was 21.6 µM.

Compound `CN1C(=O)C(Cl)(C(Cl)(Cl)S(=O)(=O)O)C(=O)c2ccccc21` (stereo unspecified) has a TGI (DLD-1 colon) greater than 100 µM and a TGI (LXFL 529 NSCLC) greater than 100 µM.

In the case of `CN(C)C(=O)O[C@@H]1CN[C@@H](C#Cc2cc3ncnc(Nc4ccc(OCc5cccc(F)c5)c(Cl)c4)c3s2)C1`, the GI50 (DU-145 prostate) is reported as greater than 25 µM, the TGI (DU-145 prostate) is reported as greater than 25 µM and the GI50 (MDA-MB-231 breast) is reported as 6.6 µM. The TGI (MDA-MB-231 breast) was greater than 20 µM, the GI50 (T-47D breast) was 11.2 µM and the TGI (T-47D breast) was greater than 25 µM. The GI50 (NCI/ADR-RES ovarian) was greater than 25 µM and the TGI (NCI/ADR-RES ovarian) was greater than 25 µM.

Work on `NC(=O)c1ccc(C2C3=C(CCCC3=O)OC3=C2C(=O)c2ccccc2C3=O)cc1` (stereo unspecified) yielded a GI50 (DU-145 prostate) of 0.465 µM, a TGI (DU-145 prostate) of 1.59 µM and a GI50 (MDA-MB-231 breast) of 0.323 µM. For the same compound, the TGI (MDA-MB-231 breast) was 1.54 µM, the GI50 (T-47D breast) was 0.272 µM and the TGI (T-47D breast) was 0.968 µM. For the same compound, the GI50 (NCI/ADR-RES ovarian) was 2.94 µM and the TGI (NCI/ADR-RES ovarian) was 22.5 µM.

`O=C1NC2(CN3CCC2CC3)C(=O)N1CN(Cc1ccccc1)c1ccccc1` (stereo unspecified) gave a TGI (DU-145 prostate) greater than 100 µM, a TGI (MDA-MB-231 breast) greater than 100 µM and a TGI (T-47D breast) greater than 100 µM. The TGI (NCI/ADR-RES ovarian) was greater than 100 µM.

With `c1nnc(NCNc2nncs2)s1` the TGI (DU-145 prostate) was greater than 100 µM, the TGI (MDA-MB-231 breast) was greater than 100 µM and the TGI (T-47D breast) was greater than 100 µM. For the same compound, the TGI (NCI/ADR-RES ovarian) was greater than 100 µM.

In the case of `Cc1cc(N/N=C/c2nc(-c3ccc(Cl)cc3)oc2C)c2cc(Cl)ccc2n1`, the GI50 (DU-145 prostate) is reported as 2.45 µM, the TGI (DU-145 prostate) is reported as 6.9 µM and the GI50 (MDA-MB-231 breast) is reported as 3.25 µM. It also gave a TGI (MDA-MB-231 breast) of 10.3 µM, a GI50 (T-47D breast) of 1.69 µM and a TGI (T-47D breast) of 3.36 µM. For the same compound, the GI50 (NCI/ADR-RES ovarian) was 2.19 µM and the TGI (NCI/ADR-RES ovarian) was 5.63 µM.

`O=C1CCCN1CC#CCN1CCCC1` gave a GI50 (DU-145 prostate) greater than 100 µM, a TGI (DU-145 prostate) greater than 100 µM and a GI50 (MDA-MB-231 breast) greater than 100 µM. For the same compound, the TGI (MDA-MB-231 breast) was greater than 100 µM, the GI50 (T-47D breast) was greater than 100 µM and the TGI (T-47D breast) was greater than 100 µM. For the same compound, the GI50 (NCI/ADR-RES ovarian) was greater than 100 µM and the TGI (NCI/ADR-RES ovarian) was greater than 100 µM.

`Cn1c(=O)c2c(ncn2CN2CCN(Cn3cnc4c3c(=O)n(C)c(=O)n4C)CC2)n(C)c1=O` showed a TGI (DU-145 prostate) greater than 100 µM, a TGI (MDA-MB-231 breast) greater than 100 µM and a TGI (T-47D breast) of 89.1 µM. For the same compound, the TGI (NCI/ADR-RES ovarian) was greater than 100 µM.

In the case of `O=C(O)CSc1ncccc1[N+](=O)[O-]`, the TGI (DU-145 prostate) is reported as greater than 100 µM, the TGI (MDA-MB-231 breast) is reported as greater than 100 µM and the TGI (T-47D breast) is reported as greater than 100 µM. It also gave a TGI (NCI/ADR-RES ovarian) greater than 100 µM.

`COc1ccc(CN2c3ccccc3CCc3ccccc32)cc1F` showed a GI50 (DU-145 prostate) of 0.481 µM, a TGI (DU-145 prostate) greater than 100 µM and a GI50 (MDA-MB-231 breast) of 1.35 µM. It also gave a TGI (MDA-MB-231 breast) of 79.7 µM, a GI50 (T-47D breast) of 0.394 µM and a TGI (T-47D breast) greater than 100 µM. It also gave a GI50 (NCI/ADR-RES ovarian) of 0.456 µM and a TGI (NCI/ADR-RES ovarian) greater than 100 µM.

In the case of `Fc1cccc(Cl)c1/C=N\N=C1c2ccccc2-c2ccccc21`, the TGI (DU-145 prostate) is reported as greater than 100 µM, the TGI (MDA-MB-231 breast) is reported as greater than 100 µM and the TGI (T-47D breast) is reported as greater than 100 µM. It also gave a TGI (NCI/ADR-RES ovarian) greater than 100 µM.

`O=C1c2ccccc2-n2c1nc1ccccc1c2=O` showed a TGI (DU-145 prostate) of 24 µM, a TGI (MDA-MB-231 breast) greater than 100 µM and a TGI (T-47D breast) of 87.4 µM. The TGI (NCI/ADR-RES ovarian) was greater than 100 µM.

For `C/C(=N\NC(N)=S)c1nc2ccc(Cl)cc2[nH]1`, the GI50 (DU-145 prostate) was 1.97 µM, the TGI (DU-145 prostate) was 8.8 µM and the GI50 (MDA-MB-231 breast) was 3.53 µM. The TGI (MDA-MB-231 breast) was 37.9 µM, the GI50 (T-47D breast) was 4.48 µM and the TGI (T-47D breast) was greater than 50 µM. The GI50 (NCI/ADR-RES ovarian) was 1.21 µM and the TGI (NCI/ADR-RES ovarian) was greater than 50 µM.

`Cc1nc(C(N)=S)sc1C(=O)C/C(=N/N)C(=O)Nc1cccc(Cl)c1C` was tested, and the TGI (MDA-MB-231 breast) was greater than 100 µM, the TGI (T-47D breast) was greater than 100 µM and the TGI (NCI/ADR-RES ovarian) was greater than 100 µM.

In the case of `CC1CCN(CC(=O)N2c3ccccc3Sc3cc4ccccc4cc32)CC1`, the TGI (DU-145 prostate) is reported as greater than 100 µM, the TGI (MDA-MB-231 breast) is reported as greater than 100 µM and the TGI (T-47D breast) is reported as greater than 100 µM. It also gave a TGI (NCI/ADR-RES ovarian) greater than 100 µM.

`CCN(CCNc1ccc(C)c2sc3ccccc3c(=O)c12)CC(C)(C)O` was tested, and the GI50 (DU-145 prostate) was 15.4 µM, the TGI (DU-145 prostate) was 38.2 µM and the GI50 (MDA-MB-231 breast) was 6.88 µM. The TGI (MDA-MB-231 breast) was 23.7 µM, the GI50 (T-47D breast) was 13.4 µM and the TGI (T-47D breast) was 47.3 µM. It also gave a GI50 (NCI/ADR-RES ovarian) of 14.1 µM and a TGI (NCI/ADR-RES ovarian) of 56.1 µM.

With `COC1CC(OC(=O)c2ccccc2)C(OC(=O)c2ccccc2)C(C)O1` (stereo unspecified) the TGI (DU-145 prostate) was greater than 100 µM, the TGI (MDA-MB-231 breast) was greater than 100 µM and the TGI (T-47D breast) was greater than 100 µM. The TGI (NCI/ADR-RES ovarian) was greater than 100 µM.

For `O=[N+]([O-])c1nccn1COCCBr`, the TGI (DLD-1 colon) was greater than 100 µM and the TGI (LXFL 529 NSCLC) was greater than 100 µM.

Work on `COc1cc(S(C)(=O)=O)ccc1Nc1nc2ccc(-c3ccc(NC(=O)[C@H](C)c4ccc(F)cc4)cc3)cn2n1` yielded a GI50 (DU-145 prostate) greater than 100 µM, a TGI (DU-145 prostate) greater than 100 µM and a GI50 (MDA-MB-231 breast) of 26.6 µM. For the same compound, the TGI (MDA-MB-231 breast) was greater than 100 µM, the GI50 (T-47D breast) was 0.596 µM and the TGI (T-47D breast) was greater than 100 µM. It also gave a GI50 (NCI/ADR-RES ovarian) greater than 20.6 µM and a TGI (NCI/ADR-RES ovarian) greater than 100 µM.

With `CCN1CSC(=S)N(CC)C1` the TGI (DU-145 prostate) was greater than 100 µM, the TGI (MDA-MB-231 breast) was 73.9 µM and the TGI (T-47D breast) was greater than 100 µM. The TGI (NCI/ADR-RES ovarian) was greater than 100 µM.
